Test results: article PMC10788915, “Fragment Merging, Growing, and Linking Identify New Trypanothione Reductase Inhibitors for Leishmaniasis” (Journal of Medicinal Chemistry, 2024)

How the values were obtained:
[1] = tested on: human THP-1-derived macrophages; assay: Cytotoxicity assay on human THP-1-derived macrophages (MTT); format: cell-based
Experimental: (§1) To assess the cytotoxicity of compounds on mammalian macrophages, we tested all the compounds against both human leukemia monocyte cell line (THP-1 cells, ATCC) differentiated into macrophages by treatment with 40 ng/mL of phorbol myristate acetate (PMA; Sigma) for 48 h and peritoneal exudate macrophages harvested from Balb/c mice. […] Cell viability was evaluated using the MTT assay, and the concentration of the compound that produced a 50% reduction of cell viability in treated culture cells with respect to untreated ones (CC50) was determined by GraphPad Prism 5.0 (GraphPad Software Inc., San Diego, USA). […] The selectivity index for each compound was calculated as the ratio of cytotoxicity (CC50) in macrophages cells to activity (IC50) against Leishmania axenic amastigotes. The experiments were performed in triplicate, and two independent experiments were conducted.

[2] = as above; format: cell-based; details: human, THP-1 cells differentiated into macrophages with PMA, 72 h, MTT; read-out: human THP-1-derived macrophage CC50 ± SE (95% CI)
Experimental: as §1

[3] = tested on: L. infantum axenic amastigotes; assay: In vitro inhibition of axenic amastigote growth (MTT); format: cell-based, Leishmania infantum; details: Leishmania infantum, 72 h, read-out: axenic amastigote EC50 ± SE (95% CI)
Experimental: Axenic amastigote growth inhibition was evaluated using L. infantum strain (MHOM/TN/80/IPT1, WHO international reference strain). Axenic amastigote cultures were obtained as described previously with modifications.[45] Promastigotes were grown in Schneider’s Drosophila medium (SIGMA) containing 10% heat-inactivated fetal calf serum (FCS)(GIBCO-BRL) and 2% gentamicin (50 mg/L)(Sigma) in 25 cm^2 flasks at 22 °C. After 4–5 days, the parasites were adjusted to 1 × 10^6 parasites/mL in axenic medium MAA/20 consisting of modified medium 199 (Gibco BRL) with Hanks’ salts supplemented with 0.5% tryptic soy broth (Sigma), 0.01 mM bathocuproine disulfonic acid, 3 mM L-cysteine, 15 mM D-glucose, 5 mM L-glutamine, 4 mM NaHCO3, 0.023 mM bovine hemin, and 25 mM HEPES to a final pH of 6.5 and supplemented with 20% pretested FCS, and axenic amastigotes were obtained by shifting the incubation conditions: 198 μL of suspension was seeded in triplicate in 96-well flat bottom microplates and incubated at 37 °C, 5% CO2 for 48 h in order to allow the axenization. The amastigote cells were visualized under the light microscope to confirm transformation. Then, 2 μL of the selected compounds with varying concentrations were added: 100, 50, 25, 12.5, 6.25, 3.12, 1.56, 0.8, 0.4, 0.2, 0.1, 0.05 μM. […] Each experiment was conducted in triplicate for each drug concentration, and three independent experiments were performed. To estimate the 50% inhibitory concentration (IC50), the (3-[4.5-dimethylthiazol-2-yl]-2.5-diphenyltetrazolium bromide) (MTT) micromethod was used throughout the experiments with modification. After 72 h of incubation, 30 μL of MTT was added to each well, and the plates were further incubated for 3 h. The absorbance at 550 nm was measured with a 96-well scanner. Antileishmanial activity was expressed as the percentage of inhibition in the number of live parasites compared to that in the control (nontreated parasites). % inhibition was calculated as follows: % growth inhibition = [(absorb cell with drug × 100)/absorb cell control] – 100. Results were analyzed by GraphPad Prism 5.0, dose–response curves were obtained and IC50 deduced (GraphPad Software Inc., San Diego, USA).

[4] = tested on: L. infantum intramacrophage amastigotes; assay: Ex vivo inhibition of intramacrophage amastigote growth; format: cell-based, Leishmania infantum; details: Leishmania infantum, Macrophage, in Mus musculus, 72 h, murine macrophages infected with L. infantum amastigotes, 72 h, read-out: intramacrophage amastigote EC50 ± SE (95% CI)
Experimental: Balb/c murine macrophages were used to perform ex vivo assay since the parasites infect them more effectively. Macrophages (5 × 10^5/well) were placed on glass coverslips within a 24-well culture plate and incubated with complete RPMI in a 5% CO2 incubator at 37 °C for 4 h to achieve cell adhesion. After this time, L. infantum amastigotes from spleens of previously infected hamsters were added onto the macrophages adhering to the coverslips at the ratio of 10:1 (parasites/macrophages). After 24 h of infection, the noninternalized amastigotes were removed by washes with RPMI. The infected macrophages were incubated with complete RPMI medium (control) or medium containing different concentrations of compounds in a 5% CO2 incubator at 37 °C for 72 h. Then, the coverslips were fixed with methanol, stained with Giemsa 10%, and analyzed by optical microscopy. The percentage of the infected macrophages and the number of amastigotes per infected macrophage were determined by random counting of 100 cells in each coverslip. Infection was judged to be adequate if more than 70% of the macrophages in the untreated control were infected. Activity for each compound was expressed as percentage of parasite burden reduction = infectivity index of treated cells/infectivity index of untreated cells. The infectivity index was calculated as follows: number of infected macrophages × mean number of amastigotes per macrophage / total number of macrophages. Nonlinear regression analysis (Graph-Pad Software Inc., San Diego, USA) was used for curve fitting and calculation of 50% inhibitory concentrations (IC50). The experiments were performed in triplicate, and two independent experiments were conducted.

[5] = tested on: L. infantum axenic amastigotes; details: stated for the control (Euroclone) in the axenic amastigote method; read-out: IC50 of the control drug; cited from earlier work
[6] = Cytotoxicity assay on primary murine macrophages (MTT); format: cell-based, Balb/c mice; details: Balb/c, mouse, primary peritoneal exudate macrophages, read-out: primary murine macrophage CC50 ± SE (95% CI)
Experimental: as §1

For `C[C@@H]1[C@H](O)[C@@H](C)/C=C/C=C/C=C/C=C/C=C/C=C/C=C/[C@H](O[C@@H]2O[C@H](C)[C@@H](O)[C@H](N)[C@@H]2O)C[C@@H]2O[C@](O)(C[C@@H](O)C[C@@H](O)[C@H](O)CC[C@@H](O)C[C@@H](O)CC(=O)O[C@H]1C)C[C@H](O)[C@H]2C(=O)O` [AmpB, Amphotericin B, reference compound], the “SI = human THP-1-derived macrophage CC50/axenic amastigote EC50” value [1] was 26.4, the CC50 at 72 h [2] was 21100 ± 3000 nM and the EC50 [3] was 800 ± 400 nM. The EC50 [4] was 540 ± 300 nM, the IC50 [5] was 500 nM and the CC50 at 72 h [6] was 16700 ± 2050 nM.
